Each block holds one compound with its values, some of them ahead of it.
How the values were obtained:
OAW-42 (ovarian) = assay: SRB cytotoxicity assay, OAW-42; format: cell-based; conditions: Homo sapiens, 50% growth inhibition, 48 h exposure
Description: (§1) Human cancer cell lines used as targets were HT-29 (colon), A-549 (lung), OAW-42 (ovarian), MDA-MB-231 (breast), HeLa (immortal cells from cervical cancer). All cells were obtained from the American Type Culture Collection (ATCC). Cells were routinely grown as monolayer cell cultures in T-75 flasks (Costar) in an atmosphere containing 5% CO2 in air and 100% relative humidity at 37 °C and subcultured twice a week, restricting the total number of cell passages below 20. The culture medium used was Dulbecco’s modified Eagle’s medium (DMEM, Gibco, Grand Island, NY, USA) supplemented with 10% fetal bovine serum (Gibco), 2 mM glutamine (Sigma), 100 μg/mL streptomycin and 100 IU/mL penicillin.
(§2) Cell passages were carried out by detaching adherent, logarithmically growing cells after addition of 2–3 mL of a mixture of 0.05% solution of trypsin (Gibco, 1:250) in phosphate-buffered saline (PBS) with 0.02% EDTA and incubation for 3–5 min at 37 °C. For the experiments, cells were plated (100 μL containing 10,000 cells/well) in 96-well flat-bottom microplates microplates (Costar-Corning, Acton, MA 01720, USA) so that untreated cells were in exponential growth phase at the time of cytotoxicity evaluation. Cells were left for 24 h at 37 °C to resume exponential growth and stabilization and afterwards exposed to tested agents for 48 h by the addition of an equal volume (100 μL) of either complete culture medium (control wells), or twice the final drug concentrations diluted in complete culture medium (test wells). Drug cytotoxicity was measured by means of the SRB colorimetric assay estimating the survival fractions (SF) as the percent of control (untreated cells) absorbance. The SRB assay was carried out as previously described and modified by our group. In brief, culture medium was aspirated prior to fixation using a microplate-multiwash device (Tri-Continent Scientific, Inc., Grass Valley, CA, USA) and 50 μL of 10% cold (4 °C) trichloroacetic acid (TCA) were gently added to the wells. Microplates were left for 30 min at 4 °C, washed five times with deionized water and left to dry at room temperature for at least 24 h. Subsequently, 70 μL of 0.4% (w/v) sulforhodamine B (Sigma) in 1% acetic acid solution were added to each well and left at room temperature for 20 min. SRB was removed and the plates were washed five times with 1% acetic acid before air drying. Bound SRB was solubilized with 200 μL of 10 mM unbuffered Tris-base solution and plates were left on a plate shaker for at least 10 min. Absorbance was read in a 96-well plate reader at 492 nm subtracting the background measurement at 620 nm. The test optical density (OD) value was defined as the absorbance of each individual well, minus the blank value (“blank” is the mean optical density of the background control wells, n = 8). Mean values and the coefficient of variation (CV) from six replicate wells were calculated automatically. Results were expressed as the “survival fraction” (SF), as shown below.
(§3) For each tested compound a dose-effect curve was produced. Sextuplicate determinations gave a CV (Standard Deviation/mean %) of much less than 10%, resulting in standard error (SE) which was very low in all cases. The data showing inhibition of cellular growth are expressed as the fraction of cells that remains unaffected (fu) (survival fraction, SF), which is derived from the following equation: fu = ODx/ODc where ODx and ODc represent the test and the control optical density, respectively.

[1] = Inhibition of linoleic acid peroxidation (AAPH); conditions: 0.1 mM
From the text: For the in vitro study of the free radical production, azo compounds generating free radicals through spontaneous thermal decomposition are used. The water soluble 2,2'-azobis(2-amidinopropane) hydrochloride (AAPH) is recommended as appropriate for measuring radical-scavenging activity in vitro. The activity of the peroxyl radicals produced by the action of AAPH greatly resembles to cellular activities such as lipid peroxidation. The phenyl substituted acids presented remarkable activity at 0.1 mM concentration (84%–92%) compared to the non-substituted derivatives (20%–63%).
For initiating the free radical, 2,2'-azobis(2-amidinopropane) dihydrochloride (AAPH) is used. The final solution in the UV cuvette consisted of ten microliters of the 16 mM linoleate sodium dispersion 0.93 mL of 0.05 M phosphate buffer, pH 7.4, thermostatted at 37 °C. 50 μL of 40 mM AAPH solution was added as a free radical initiator at 37 °C under air and 10 μL of the tested compounds. The oxidation of linoleic acid sodium salt results a conjugated diene hydroperoxide. The reaction is monitored at 234 nm (Table 3).

[2] = Hydroxyl radicals scavenging activity (Fe3+/ascorbic acid system, competition with DMSO); conditions: 0.1 mM; no = no action under the used experimental conditions
Description: Thus we evaluated our acids for their competition with DMSO for ˙OH radicals was measured, hydroxyl radicals were produced by the Fe^3+/ascorbic acid system and expressed as percent inhibition of formaldehyde formation at 0.1 mM concentration (Table 3).
The hydroxyl radicals were produced by the Fe ^3+/ascorbic acid system. EDTA (0.1 mM), Fe ^3+ (167 μM), DMSO (33 mM) in phosphate buffer (50 mM, pH 7.4), the tested compounds (0.1 mM) and ascorbic acid (10 mM) were mixed in test tubes. The solutions were incubated at 37 °C for 30 min. The reaction was stopped by CCl3COOH (17% w/v) (Table 4) and the % scavenging activity of the tested compounds for hydroxyl radicals was given.

[3] = Interaction with the stable radical DPPH
Description: The novel acids were studied for the antioxidant activity by the use of the sTable 2,2-diphenyl-1-picrylhydrazyl radical (DPPH) at concentrations 0.05 and 0.1 mM after 20 and 60 min (Table 2). In the DPPH assay, the dominant chemical reaction involved is the reduction of the DPPH radical by single electron transfer SET from the antioxidant. Phenolic compounds eg. […] The compounds presented reducing abilities which ranged nearly 29% (4ii), small differences were found among the compounds with time and concentration. […] Due to steric reasons the interaction of DPPH with the tested compounds is low.
To a solution of DPPH in absolute ethanol the appropriate volume of the compounds (0.05 and 0.1 mM final concentrations) dissolved in DMSO was added. The absorbance was recorded at 517 nm after 20 and 60 min at room temperature (Table 3).

HT-29 (colon) = assay: SRB cytotoxicity assay, HT-29; format: cell-based; conditions: Homo sapiens, 50% growth inhibition, 48 h exposure
Description: as §1, §2, §3

MRC-5 normal cells = assay: SRB cytotoxicity assay, MRC-5 normal cells; format: cell-based; conditions: Homo sapiens, MRC5, 50% growth inhibition, 48 h exposure
Description: Thus, we conducted in vitro studies in two colon cancer cell lines (HT-29 and HCT-15) reported time and dose-dependent stimulation of cell proliferation by LTB4 and 12-HETE [46]. The synthesized acids have been tested in five different human tumour cell lines: HT-29 (colon), A-549 (lung), OAW-42 (ovarian), MDA-MB-231 (breast), HeLa (immortal cells from cervical cancer) and MRC-5 normal cells.
as §2, §3

[4] = test system: HeLa (immortal cells from cervical cancer); assay: SRB cytotoxicity assay, HeLa; format: cell-based; conditions: Homo sapiens, 50% growth inhibition, 48 h exposure
Description: as §1, §2, §3

melting point: 135 to 136 °C
SMILES: O=C(O)C(=CC(Br)=Cc1ccccc1)c1ccccc1 [Compound 4i, 4-Bromo-2,5-diphenylpenta-2,4-dienoic acid]
IC50 (OAW-42 (ovarian)): 174 ± 1.8 µM
AAPH (%) (±SD), inhibition of linoleic acid peroxidation [1]: 88 ± 1.8%
HO (%) (±SD) [2]: no
RA % (±SD), DPPH ([3]; 0.05 mM, 20 min): 7 ± 0.03%
RA % (±SD), DPPH ([3]; 0.05 mM, 60 min): 4 ± 0.01%
RA % (±SD), DPPH ([3]; 0.1 mM, 20 min): 8 ± 0.03%
RA % (±SD), DPPH ([3]; 0.1 mM, 60 min): 5 ± 0.0%
IC50 (HT-29 (colon)): > 240 µM
IC50 (MRC-5 normal cells): 92 ± 1.3 µM
IC50 [4]: 80 ± 0.9 µM

melting point: 145 to 147 °C
SMILES: O=C(O)C(=CC=Cc1ccccc1)c1ccccc1 [Compound 3i, 2,5-Diphenylpenta-2,4-dienoic acid]
IC50 (OAW-42 (ovarian)): > 240 µM
AAPH (%) (±SD), inhibition of linoleic acid peroxidation [1]: 84 ± 1.4%
HO (%) (±SD) [2]: 81 ± 1.9%
RA % (±SD), DPPH ([3]; 0.05 mM, 20 min): 4 ± 0.02%
RA % (±SD), DPPH ([3]; 0.05 mM, 60 min): 3 ± 0.0%
RA % (±SD), DPPH ([3]; 0.1 mM, 20 min): 5 ± 0.0%
RA % (±SD), DPPH ([3]; 0.1 mM, 60 min): 6 ± 0.04%
IC50 (HT-29 (colon)): > 240 µM
IC50 (MRC-5 normal cells): > 240 µM
IC50 [4]: > 240 µM

melting point: 169 to 171 °C
SMILES: O=C(O)C=CC(Br)=Cc1ccccc1 [Compound 4ii, 4-Bromo-5-phenylpenta-2,4-dienoic acid]
IC50 (OAW-42 (ovarian)): 63.5 ± 0.8 µM
AAPH (%) (±SD), inhibition of linoleic acid peroxidation [1]: 63 ± 1.1%
HO (%) (±SD) [2]: 100 ± 1.8%
RA % (±SD), DPPH ([3]; 0.05 mM, 20 min): 17 ± 0.02%
RA % (±SD), DPPH ([3]; 0.05 mM, 60 min): 13 ± 0.05%
RA % (±SD), DPPH ([3]; 0.1 mM, 20 min): 30 ± 0.9%
RA % (±SD), DPPH ([3]; 0.1 mM, 60 min): 29 ± 0.6%
IC50 (HT-29 (colon)): 54 ± 1.1 µM
IC50 (MRC-5 normal cells): 24 ± 0.6 µM
IC50 [4]: 30 ± 0.4 µM

More lines, now with the values behind:

SMILES: O=C(O)C(=CC=Cc1ccc([N+](=O)[O-])cc1)c1ccccc1 [Compound 2i, 5-(4-Nitrophenyl)-2-phenylpenta-2,4-dienoic acid]
IC50 (OAW-42 (ovarian)): 160 ± 1.1 µM
AAPH (%) (±SD), inhibition of linoleic acid peroxidation [1]: 89 ± 0.9%
melting point: 163 to 165 °C
HO (%) (±SD) [2]: 33 ± 0.8%
RA % (±SD), DPPH ([3]; 0.05 mM, 20 min): 10 ± 0.04%
RA % (±SD), DPPH ([3]; 0.05 mM, 60 min): 11 ± 0.02%
RA % (±SD), DPPH ([3]; 0.1 mM, 20 min): 23 ± 0.7%
RA % (±SD), DPPH ([3]; 0.1 mM, 60 min): 23 ± 0.9%
IC50 (HT-29 (colon)): 141 ± 1.8 µM
IC50 (MRC-5 normal cells): 96.3 ± 1.1 µM
IC50 [4]: 118 ± 1.4 µM

SMILES: N#Cc1ccc(C=CC(=O)O)cc1 [Compound 1ii, 3-(4-Cyanophenyl)acrylic acid]
IC50 (OAW-42 (ovarian)): > 240 µM
AAPH (%) (±SD), inhibition of linoleic acid peroxidation [1]: 20 ± 0.1%
melting point: 258 to 260 °C
HO (%) (±SD) [2]: no
RA % (±SD), DPPH ([3]; 0.05 mM, 20 min): 13 ± 0.3%
RA % (±SD), DPPH ([3]; 0.05 mM, 60 min): 9 ± 0.03%
RA % (±SD), DPPH ([3]; 0.1 mM, 20 min): 23 ± 0.5%
RA % (±SD), DPPH ([3]; 0.1 mM, 60 min): 21 ± 1.0%
IC50 (HT-29 (colon)): > 240 µM
IC50 (MRC-5 normal cells): > 240 µM
IC50 [4]: > 240 µM

SMILES: O=C(O)C=CC=Cc1ccccc1 [Compound 3ii, 5-Phenylpenta-2,4-dienoic acid]
IC50 (OAW-42 (ovarian)): > 240 µM
AAPH (%) (±SD), inhibition of linoleic acid peroxidation [1]: 30 ± 1.0%
HO (%) (±SD) [2]: 81 ± 1.2%
RA % (±SD), DPPH ([3]; 0.05 mM, 20 min): 11 ± 0.06%
RA % (±SD), DPPH ([3]; 0.05 mM, 60 min): 7 ± 0.0%
RA % (±SD), DPPH ([3]; 0.1 mM, 20 min): 20 ± 0.2%
RA % (±SD), DPPH ([3]; 0.1 mM, 60 min): 16 ± 0.05%
IC50 (HT-29 (colon)): > 240 µM
IC50 (MRC-5 normal cells): 240 ± 1.8 µM
IC50 [4]: > 240 µM

SMILES: O=C(O)C=CC=Cc1ccc([N+](=O)[O-])cc1 [Compound 2ii, 5-(4-Nitrophenyl)penta-2,4-dienoic acid]
IC50 (OAW-42 (ovarian)): > 240 µM
AAPH (%) (±SD), inhibition of linoleic acid peroxidation [1]: 29 ± 0.7%
melting point: 170 to 172 °C
HO (%) (±SD) [2]: no
RA % (±SD), DPPH ([3]; 0.05 mM, 60 min): 13 ± 0.04%
RA % (±SD), DPPH ([3]; 0.1 mM, 20 min): 29 ± 1.0%
RA % (±SD), DPPH ([3]; 0.1 mM, 60 min): 24 ± 0.6%
IC50 (HT-29 (colon)): > 240 µM
IC50 (MRC-5 normal cells): 240 ± 1 µM
IC50 [4]: 240 ± 1.6 µM

SMILES: N#Cc1ccc(C=C(C(=O)O)c2ccccc2)cc1 [Compound 1i, 3-(4-Cyanophenyl)-2-phenylacrylic acid]
IC50 (OAW-42 (ovarian)): > 240 µM
AAPH (%) (±SD), inhibition of linoleic acid peroxidation [1]: 92 ± 1.2%
melting point: 155 to 157 °C
HO (%) (±SD) [2]: no
RA % (±SD), DPPH ([3]; 0.05 mM, 20 min): 12 ± 0.3%
RA % (±SD), DPPH ([3]; 0.05 mM, 60 min): 14 ± 0.1%
RA % (±SD), DPPH ([3]; 0.1 mM, 20 min): 28 ± 0.6%
RA % (±SD), DPPH ([3]; 0.1 mM, 60 min): 20 ± 0.8%
IC50 (HT-29 (colon)): > 240 µM
IC50 (MRC-5 normal cells): 222 ± 1.3 µM
IC50 [4]: > 240 µM

— article PMC6270778, “Novel Cinnamic Acid Derivatives as Antioxidant and Anticancer Agents: Design, Synthesis and Modeling Studies” (Molecules, 2014)
